Data published in US12442035B2, “Compositions and methods for detecting antibiotic responsive mRNA expression signatures and uses thereof” (THE BROAD INSTITUTE, INC., priority 2018, dated 2025).

How the values were obtained:
[1] = system: K. pneumoniae clinical isolates; test: Standard broth microdilution MIC; assay type: cell-based, Klebsiella pneumoniae
From the text: (§3) All strains in this study (Table 7) were obtained from clinical or reference microbiological laboratories, including both local hospitals and MDRO strain collections from the Centers for Disease Control's Antibiotic Resistance Isolate Bank (see e.g., World Wide Web at (www).cdc.gov/ARIsolateBank/) and the New York State Department of Health.

[2] = system: E. coli clinical isolates; test: Standard broth microdilution MIC; assay type: cell-based, Escherichia coli
From the text: as §3

[3] = system: A. baumannii clinical isolates; test: Standard broth microdilution MIC; assay type: cell-based, Acinetobacter baumannii
From the text: as §3

[4] = system: K. pneumoniae clinical isolates; test: RNA-Seq transcriptional response to antibiotic exposure, GO term enrichment; assay type: cell-based, Klebsiella pneumoniae; settings: CLSI breakpoint concentration, 0, 10, 30, 60 minutes
From the text: (§1) Fisher's combined probability test was used to select only those genes whose expression after antibiotic treatment was statistically distinguishable from its expression at any timepoint in the untreated samples. Gene ontology (GO) terms were assigned using blast2GO (version 1.4.4), with hypergeometric testing for enrichment. For each pathogen-antibiotic pair, the fold-change threshold in DESeq2 used to test statistical significance was increased to select 60-100 antibiotic-responsive transcripts with maximal stringency, a number readily accommodated by the NanoString® assay format. […] As with responsive genes, the fold-change threshold was varied in order to select the top 10-20 control transcripts. […] See Supplemental Methods sections below for further details.
(§2) After antibiotic treatment as described in the above Materials and Methods section, cells were pelleted, resuspended in 0.5 mL Trizol reagent (ThermoFisher Scientific), transferred to 1.5 mL screw-cap tubes containing 0.25 mL of 0.1 mm diameter Zirconia/Silica beads (BioSpec Products), and lysed mechanically via bead-beating for 3-5 one-minute cycles on a Minibeadbeater-16 (BioSpec) or one 90-second cycle at 10 m/sec on a FastPrep (MP Bio). After addition of 0.1 mL chloroform, each sample tube was mixed thoroughly by inversion, incubated for 3 minutes at room temperature, and centrifuged at 12,000×g for 15 minutes at 4° C. […]

[5] = system: E. coli clinical isolates; test: as above; assay type: cell-based, Escherichia coli; settings: CLSI breakpoint concentration, 0, 10, 30, 60 minutes
[6] = system: A. baumannii clinical isolates; test: as above; assay type: cell-based, Acinetobacter baumannii; settings: CLSI breakpoint concentration, 0, 10, 30, 60 minutes
From the text: as §1, §2

## gentamicin
[1]; KpGent strain AR0042
  gent MIC: 32 µg/mL
[1]; KpGent strain AR0043
  gent MIC: 1 µg/mL
[1]; KpGent strain AR0076
  gent MIC: 32 µg/mL
[1]; KpGent strain AR0080
  gent MIC: 2 µg/mL
[1]; KpGent strain ATCC 700721
  gent MIC: >32 µg/mL
[1]; KpGent strain BAC0800007138
  gent MIC: 0.5 µg/mL
[1]; KpGent strain BIDMC_2A
  gent MIC: 2 µg/mL
[1]; KpGent strain BIDMC_34
  gent MIC: 32 µg/mL
[1]; KpGent strain BIT-10
  gent MIC: 4 µg/mL
[1]; KpGent strain BWH_15
  gent MIC: 4 µg/mL
[1]; KpGent strain IDR1600031102-01-00
  gent MIC: >32 µg/mL
[1]; KpGent strain IDR1600039511-01-00
  gent MIC: 0.5 µg/mL
[1]; KpGent strain MGH_30
  gent MIC: 1 µg/mL
[1]; KpGent strain MGH_35
  gent MIC: >16 µg/mL
[1]; KpGent strain MGH_63
  gent MIC: >16 µg/mL
[1]; KpGent strain RB012
  gent MIC: 32 µg/mL
[1]; KpGent strain RB040
  gent MIC: 0.5 µg/mL
[1]; KpGent strain RB042
  gent MIC: 2 µg/mL
[1]; KpGent strain RB121
  gent MIC: 1 µg/mL
[1]; KpGent strain RB122
  gent MIC: 128 µg/mL
[1]; KpGent strain UCI_7
  gent MIC: 0.5 µg/mL
[1]; KpGent strain UCI_13
  gent MIC: 0.5 µg/mL
[1]; KpGent strain UCI_37
  gent MIC: 16 µg/mL
[1]; KpGent strain UCI_63
  gent MIC: 4 µg/mL
[1]; KpGent strain UCI_67
  gent MIC: 8 µg/mL
[2]; E. coli strain AR0055
  gent MIC: 64 µg/mL
[2]; E. coli strain AR0061
  gent MIC: 32 µg/mL
[2]; E. coli strain AR0081
  gent MIC: 0.5 µg/mL
[2]; E. coli strain AR0084
  gent MIC: 0.5 µg/mL
[2]; E. coli strain AR0085
  gent MIC: 2 µg/mL
[2]; E. coli strain BAA2469
  gent MIC: 64 µg/mL
[2]; E. coli strain BAC0800005647
  gent MIC: 1 µg/mL
[2]; E. coli strain IDR1300027657
  gent MIC: 64 µg/mL
[2]; E. coli strain IDR1300034680
  gent MIC: 1 µg/mL
[2]; E. coli strain IDR1600047120
  gent MIC: 64 µg/mL
[2]; E. coli strain MGH_57
  gent MIC: 0.5 µg/mL
[2]; E. coli strain RB001 (deriv_S)
  gent MIC: 1 µg/mL
[2]; E. coli strain RB051 (deriv_R)
  gent MIC: 256 µg/mL
[2]; E. coli strain RB057 (deriv_R)
  gent MIC: 256 µg/mL
[2]; E. coli strain RB075 (deriv_S)
  gent MIC: 0.5 µg/mL
[2]; E. coli strain RB765
  gent MIC: 64 µg/mL
[2]; E. coli, printed on the continuation line of strain RB075, above RB076, strain unclear
  gent MIC: 1 µg/mL
[3]; A. baumannii strain AR0033
  gent MIC: 32 µg/mL
[3]; A. baumannii strain AR0035
  gent MIC: 16 µg/mL
[3]; A. baumannii strain AR0037
  gent MIC: >32 µg/mL
[3]; A. baumannii strain AR0045
  gent MIC: >32 µg/mL
[3]; A. baumannii strain AR0052
  gent MIC: 32 µg/mL
[3]; A. baumannii strain AR0056
  gent MIC: >32 µg/mL
[3]; A. baumannii strain AR0063
  gent MIC: 4 µg/mL
[3]; A. baumannii strain AR0070
  gent MIC: >32 µg/mL
[3]; A. baumannii strain AR0078
  gent MIC: >32 µg/mL
[3]; A. baumannii strain AR0101
  gent MIC: 8 µg/mL
[3]; A. baumannii strain AR0102
  gent MIC: >32 µg/mL
[3]; A. baumannii strain ATCC 17978
  gent MIC: ≤0.5 µg/mL
[3]; A. baumannii strain RB197 (deriv_S)
  gent MIC: ≤0.5 µg/mL
[3]; A. baumannii strain RB198
  gent MIC: 32 µg/mL
[3]; A. baumannii strain RB200 (deriv_R)
  gent MIC: >32 µg/mL
[3]; A. baumannii strain RB201
  gent MIC: 1 µg/mL
[3]; A. baumannii strain RB202
  gent MIC: >32 µg/mL
[3]; A. baumannii strain RB203
  gent MIC: 4 µg/mL
[3]; A. baumannii strain RB204 (deriv_R)
  gent MIC: >32 µg/mL
[3]; A. baumannii strain RB205 (deriv_S)
  gent MIC: 2 µg/mL
[3]; A. baumannii strain RB206
  gent MIC: >32 µg/mL
[4]
  Gene ontology enrichment of antibiotic-responsive transcripts: induced the unfolded protein response and quinone binding
[5]
  Gene ontology enrichment of antibiotic-responsive transcripts: induced the unfolded protein response and quinone binding
[6]
  Gene ontology enrichment of antibiotic-responsive transcripts: induced the unfolded protein response and quinone binding
